Results as given in patent US4535079A, “Alkanolaminoxy derivatives of 3,4-dihydro-2H-1,4-benzothiazin-3-one, their production process, and their pharmaceutical use” (Mediolanum Farmaceutici S.R.L., priority 1982, dated 1985).
Counter-ions that a name gives are not always drawn.

Experiments:
[1] = LD50 in the male Wistar rat by intravenous administration; settings: in vivo, i.v.
[2] = tested on: beta-adrenergic cardiac receptors (isolated guinea pig atrium); test: Beta-blocking activity: isolated guinea pig atrium method; settings: concentration inhibiting 25% of the response to isoprenaline, 29° C., 10 minutes before isoprenaline
Experimental: (a) Beta-blocking activity: isolated guinea pig atrium method
The compounds under examination were tested on the isolated guinea pig atrium for their capacity to antagonise the positive inotropic and chronotropic effects induced by isoprenaline. The preparations were made up from native guinea pigs weighing 450±50 g and suspended in a 10 ml bath of oxygenated Tyrode maintained at 29° C., the frequency and force of contraction being recorded by means of an isotonic pen loaded with 1.5 g and having an amplification ratio of 1:15. The substance under test was added to the medium in a volume of 0.1 ml 10 minutes before stimulation by isoprenalina administered at the optimum concentration which had been determined on the basis of the reactivity of the preparation.

[3] = tested on: guinea pig; test: Protection from the lethal effect of aconitine in the guinea pig; format: in vivo; settings: Cavia porcellus, 10 min, intravenous, 10 minutes before aconitine perfusion, read-out: percentage increase in the time of death by aconitine with respect to the control animals; for change in vivo at 0.009 mg/kg: dose 9 μg/kg; for change in vivo at 0.01 mg/kg: dose 10 μg/kg; for change in vivo at 0.025 mg/kg: dose 25 μg/kg; for change in vivo at 0.015 mg/kg: dose 15 μg/kg; for change in vivo at 0.02 mg/kg: dose 20 μg/kg
Experimental: Protection from the methal effect of aconitine in the guinea pig. For the compounds according to the invention, an evaluation was made of their capacity to antagonise the lethal effect of aconitine in native guinea pigs of both sexes having an average weight of 400±50 g, anesthetized with 10% ethylurethan (1 g/kg i.p.), by making an E.C.G. precardiacal recording. Death was induced by perfusing aconitine through the jugular at a dose of 150 γ/kg/hour (5 ml/hour). The time of commencement of arrhythmia, the time of commencement of fibrillation and the time of death were checked. The product under examination were administered to the jugular vein 10 minutes before commencement of perfusion in doses from 0.01 mg/kg to 10 mg/kg.

[4] = tested on: isolated guinea pig trachea; test: Beta-blocking activity by the isolated guinea pig trachea method; settings: concentration able to inhibit 50% of the response; 37° C., 12 minutes before stimulation
Experimental: (b) Beta-blocking activity by the isolated guinea pig trachea method
The series was also tested for beta-blocking activity at the level of the isolated guinea pig trachea, evaluated as antagonism to the effect of isoprenaline.
A trachea segment was withdrawn from animals weighing 450±50 g, and a spiral of tissue was prepared and then suspended in a 20 ml bath of oxygenated Tyrode containing 10^-7 g/ml of acetylcholine and […] of eserine, the bath being temperature-controlled at 37° C. The recording was made by means of an isotonic pen with maximum amplification,loaded to 0.5 g and constantly cibrated.
Having determined the sub-maximum concentration of isoprenaline for stimulating the preparation, the test substance was placed in contact with it at different concentrations 12 minutes before stimulation, then evaluating the antagonistic effect.

SMILES | LD50 [1] [mg/kg] | IC25, positive chronotropic effect with isoprenaline [2] [µg/mL] | IC25, positive inotropic effect with isoprenaline [2] [µg/mL] | change in vivo at 0.009 mg/kg [3] [%] | IC50, antagonism in the response of the isolated guinea pig trachea to isoprenaline [4] [µg/mL] | change in vivo at 0.01 mg/kg [3] [%] | change in vivo at 0.025 mg/kg [3] [%] | change in vivo at 0.015 mg/kg [3] [%] | change in vivo at 0.02 mg/kg [3] [%]
CC(C)(C)NCC(O)COc1cccc2c1SCC(=O)N2 (stereo not drawn) [XVII] | 50 | 0.000992 | 0.000276 | 55.4 | 0.0015 |  |  |  | 
CC(C)CNCC(O)COc1cccc2c1SCC(=O)N2 (stereo not drawn) [XVI] | 67 | 0.13 | 0.0995 |  | 0.112 | 32.2 |  |  | 
CC(C)(C)NCC(O)COc1cccc2c1CCC(=O)N2 (stereo not drawn) [Carteolol, 5-(3-tert.butylamino-2-hydroxy-propoxy)-3,4-dihydro-carbostyryl-hydrochloride, reference compound] | 50 | 0.00905 | 0.00173 |  |  |  |  |  | 
CCC(C)NCC(O)COc1ccc2c(c1)NC(=O)CS2 (stereo not drawn) [Compound X] | 78 | 0.803 | 0.67 |  | 0.66 |  | 11.3 |  | 
CCC(C)NCC(O)COc1cccc2c1SCC(=O)N2 (stereo not drawn) [XVIII] | 75 | 0.803 | 0.0705 |  | 1.21 | 49.2 |  |  | 
CCC(C)NCC(O)COc1ccc2c(c1)SCC(=O)N2 (stereo not drawn) [XIV] | 68 | 0.202 | 0.0978 |  | 0.25 |  |  | 20.6 | 
CC(C)NCC(O)COc1ccc2c(c1)SCC(=O)N2 (stereo not drawn) [Compound XI] | 65 | 0.091 | 0.0743 |  | 0.76 |  |  | 21.3 | 
CC(C)NCC(O)COc1ccc2c(c1)NC(=O)CS2 (stereo not drawn) [VII] | 80 | 0.415 | 0.346 |  | 0.43 |  | 24.1 |  | 
CC(C)CNCC(O)COc1ccc2c(c1)SCC(=O)N2 (stereo not drawn) [Compound XII] | 82 | 0.55 | 0.361 |  | 0.806 |  |  |  | 16.4
CC(C)CNCC(O)COc1ccc2c(c1)NC(=O)CS2 (stereo not drawn) [VIII] | 83 | 0.861 | 0.741 |  | 1.14 |  |  |  | 19
CC(C)(C)NCC(O)COc1ccc2c(c1)SCC(=O)N2 (stereo not drawn) [Compound XIII, 7-(3-tert.butylamino-2-hydroxy)-propoxy-3,4-dihydro-2H-1,4-benzothiazin-3-one] | 60 | 0.0703 | 0.0565 |  | 0.125 | 39.7 |  |  | 
CC(C)(C)NCC(O)COc1ccc2c(c1)NC(=O)CS2 (stereo not drawn) [IX] | 75 | 0.255 | 0.203 |  | 0.568 | 25.9 |  |  | 
CC(C)NCC(O)COc1cccc2c1SCC(=O)N2 (stereo not drawn) [XV] | 73 | 0.0641 | 0.0587 | 48.6 | 0.123 |  |  |  | 
